Experimental data from patent US5118681A (priority 1989, dated 1992).
In brackets after ≈: the same amount, converted by molar mass.

Legend:
[1] = test system: A.n; test: Minimum Inhibitory Concentration Test, alternate (Table 4), A.n; format: cell-based, Aspergillus niger; conditions: Aspergillus niger, TSB, 72 hours
Protocol: (§1) A 125 μl aliquot of 10,000 ppm test compound in acetone was added to 4.88 ml of TSB to provide a 250 ppm solution. From this solution, 100 μL was transferred to the first row of two microtiter plate columns. Both replicates and five additional compounds were all serially diluted 1:1 to a final concentration of 0.8 ppm in TSB.
(§2) Inoculation was accomplished by diluting a 24 hr Ps fl culture, four mls per 36 mls of phosphate buffer solution. A Dynatech autoinoculator was used to transfer 1.5 μl of this cell suspension to the microtiter plates. The plates were incubated at 30° C. for 3 days before the lowest concentration at which no growth occurs was recorded in the database. The SOK data and MIC test data on Ps.fl, Ps.ae, E.c, and S.a. bacteria and Candida albicans (C.alb), A.n and A.p fungi are listed in Table 4.

[2] = test system: A.p; test: Minimum Inhibitory Concentration Test, alternate (Table 4), A.p; format: cell-based; conditions: Aureobasidium pullulans, TSB, 72 hours
Protocol: as §1, §2

[3] = test system: Candida albicans (C.alb); test: Minimum Inhibitory Concentration Test, alternate (Table 4), C.alb; format: cell-based; conditions: Candida albicans, TSB, 72 hours
Protocol: as §1, §2

[4] = test system: E.c; test: Minimum Inhibitory Concentration Test, alternate (Table 4), E.c; format: cell-based, Escherichia coli; conditions: Escherichia coli, TSB, 72 hours
Protocol: as §1, §2

[5] = test system: Ps.ae; test: Minimum Inhibitory Concentration Test, alternate (Table 4), Ps.ae; format: cell-based, Pseudomonas aerugenosa; conditions: Pseudomonas, TSB, 72 hours
[6] = test system: Pseudomonas fluorescens; test: Minimum Inhibitory Concentration Test, alternate (Table 4), Ps.fl; format: cell-based; conditions: Pseudomonas fluorescens, TSB, 72 hours, 30° C
Protocol: as §1, §2

[7] = test system: S.a; test: Minimum Inhibitory Concentration Test, alternate (Table 4), S.a; format: cell-based, Staphylococcus aureus; conditions: Staphylococcus aureus, TSB, 72 hours
Protocol: as §1, §2

[8] = test system: Pseudoperonospora cubensis; test: whole plant or invertebrate; format: in vivo; conditions: Pseudoperonospora cubensis, in Cucumis sativus, 168 h; read-out: % control CDM
[9] = test system: Piricularia oryzae; test: whole plant or invertebrate; format: in vivo; conditions: Pyricularia oryzae, read-out: % control RB
[10] = test system: Pellicularia filamentosa (f. sp. sasiki); test: whole plant or invertebrate; format: in vivo; conditions: 120 h; read-out: % control RSB
[11] = test system: Phytophthora infestans; test: whole plant or invertebrate; format: in vivo; conditions: Phytophthora infestans, in Solanum lycopersicum, 96 h, read-out: % control TLB
[12] = test system: Erysiphe graminis (f. sp. tritici); test: whole plant or invertebrate; format: in vivo; conditions: Blumeria graminis; read-out: % control WPM
[13] = test system: Puccinia recondita (f. sp. tritici Races PKB and PLD); test: whole plant or invertebrate; format: in vivo; conditions: Puccinia recondita, 240 h; read-out: % control WLR

Compound	MIC [1] [µg/mL]	MIC [2] [µg/mL]	MIC [3] [µg/mL]	MIC [4] [µg/mL]	MIC [5] [µg/mL]	MIC [6] [µg/mL]	MIC [7] [µg/mL]	pest or weed control at 100 ppm [8] [%]	pest or weed control at 100 ppm [9] [%]	pest or weed control at 100 ppm [10] [%]	pest or weed control at 100 ppm [11] [%]	pest or weed control at 100 ppm [12] [%]	pest or weed control at 100 ppm [13] [%]	pest or weed control at 25 ppm [13] [%]
CCCCCCCCNC(=O)/C=C\SC(C(=O)Nc1ccc(Cl)cc1Cl)C(=O)OCC (stereo not drawn) [Example 41, N-n-octyl-cis-3-{2-[ethyl-N-(2,4-dichlorophenyl)malonamido]thio}acrylamide]	8 to 31 (≈ 16.3 to 63.3 µM)	8 (≈ 16.3 µM)	63 (≈ 129 µM)	> 500	> 500	> 500	> 500	100	99	0	87	50	0	
CCCCCCCCNC(=O)/C=C\SC(C(=O)Nc1cc([N+](=O)[O-])ccc1Cl)C(=O)OCC (stereo not drawn) [Example 45, N-n-octyl-cis-3-{2-[ethyl-N-(2-chloro-5-nitrophenyl)malonamido]thio}acrylamide]	4 to 8 (≈ 8 to 16 µM)	< 2	4 (≈ 8 µM)	> 250	> 250	> 250	63 (≈ 126 µM)		0	0	0	0		50
CCCCCCCCNC(=O)/C=C\SC(C(C)=O)C(=O)Nc1ccc(OC)cc1 (stereo not drawn) [Example 47, N-n-octyl-cis-3-{2-[N-(4-methoxyphenyl)acetoacetamido]thio}acrylamide]	4 to 16 (≈ 9.51 to 38 µM)	< 2	4 (≈ 9.51 µM)	> 250	> 250	> 250	31 (≈ 73.7 µM)	100	0	0	80	0	0	
CCCCCCCCNC(=O)/C=C\SC(C(=O)Nc1ccc(Cl)c([N+](=O)[O-])c1)C(=O)OCC (stereo not drawn) [Example 48, N-n-octyl-cis-3-{2-[ethyl-N-(3-nitro-4-chlorophenyl)malonamido]thio}acrylamide]	4 to 31 (≈ 8 to 62 µM)	< 2	31 (≈ 62 µM)	> 250	> 250	> 250	> 250	99	0	0	99	0	50	
CCCCCCCCNC(=O)/C=C\SC(C(=O)Nc1ccc(OC)c(Cl)c1)C(=O)OCC (stereo not drawn) [Example 50, N-n-octyl-cis-3-{2-[ethyl-N-(3-chloro-4-methoxyphenyl)malonamido]thio}acrylamide]		< 2	63 to 250 (≈ 130 to 515 µM)	> 250	> 250	> 250	> 250	85	0	0	0	0	50	
CCCCCCCCNC(=O)/C=C\SC(C(=O)NCCCN1CCOCC1)C(=O)OCC (stereo not drawn) [Example 51, N-n-octyl-cis-3-{2-[ethyl-N-(3-(4-morpholino)propyl)malonamido]thio}acrylamide]	< 2	< 2	< 2	> 250	> 250	> 250	31 (≈ 65.7 µM)	99	0	0	0	0	0	
CCCCCCCCNC(=O)/C=C\SC(C(=O)NN1CCOCC1)C(=O)OCC (stereo not drawn) [Example 63, N-n-octyl-cis-3-{2-[ethyl-N-(4-morpholino)malonamido]thio}acrylamide]	2 to 16 (≈ 4.66 to 37.2 µM)	< 2	< 2	250 (≈ 582 µM)	> 250	> 250	31 (≈ 72.2 µM)	99	0	0	0	0	0	
